Assay results as given in patent publication US8486951B2 (Deciphera Pharmaceuticals, LLC, priority 2008, dated 2013).

target: T1, c-MET kinase (Seq. ID no. 2) (Homo sapiens, UniProt P08581); assay: c-MET Kinase Assay (ADP production, pyruvate kinase/lactate dehydrogenase coupled); format: biochemical; settings: read-out: cMET Enzyme Assay
T1 construct: purchased Invitrogen PV3143
Description: In this assay, the oxidation of NADH (thus the decrease at A340 nm) was continuously monitored spectrophometrically. […] Test compounds were incubated with C-Met (Seq. ID no. 2) and other reaction reagents at 22° C. for 0.5 h before ATP (100 μM) was added to start the reaction. The absorption at 340 nm was monitored continuously for 2 hours at 30° C. on Polarstar Optima plate reader (BMG). The reaction rate was calculated using the 1.0 to 2.0 h time frame. Percent inhibition was obtained by comparison of reaction rate with that of a control (i.e. with no test compound). IC50 values were calculated from a series of percent inhibition values determined at a range of inhibitor concentrations using software routines as implemented in the GraphPad Prism software package.

T1 sequence (P08581 with tags, fused parts or gaps): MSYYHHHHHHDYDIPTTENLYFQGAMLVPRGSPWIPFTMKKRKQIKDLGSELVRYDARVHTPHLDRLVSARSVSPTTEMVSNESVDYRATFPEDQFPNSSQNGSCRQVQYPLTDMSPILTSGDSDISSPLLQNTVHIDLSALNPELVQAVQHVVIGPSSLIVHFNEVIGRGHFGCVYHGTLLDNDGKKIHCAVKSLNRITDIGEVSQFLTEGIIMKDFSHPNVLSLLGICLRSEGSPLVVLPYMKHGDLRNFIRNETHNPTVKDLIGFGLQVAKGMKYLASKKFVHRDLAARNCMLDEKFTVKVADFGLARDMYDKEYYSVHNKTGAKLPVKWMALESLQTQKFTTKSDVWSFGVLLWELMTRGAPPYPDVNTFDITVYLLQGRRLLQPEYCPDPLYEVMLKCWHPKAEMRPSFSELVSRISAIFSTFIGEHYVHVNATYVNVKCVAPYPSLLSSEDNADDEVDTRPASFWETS

Which IC50 does the source give for Cn1cc(-c2cc(Oc3ccc(NC(=O)C4(C(=O)Nc5ccc(F)c(F)c5)CC4)c(F)c3)ccn2)cn1 [Example 24, N-(3,4-difluorophenyl)-N′-(2-fluoro-4-(2-(1-methyl-1H-pyrazol-4-yl)pyridin-4-yloxy)phenyl)cyclopropane-1,1-dicarboxamide] here?
The IC50 was under 2 µM.

For Cn1cc(-c2cc(Oc3ccc(NC(=O)C4(C(=O)Nc5ccc(C(F)(F)F)cc5)CC4)c(F)c3)ccn2)cn1 [Example 25, N-(2-fluoro-4-(2-(1-methyl-1H-pyrazol-4-yl)pyridin-4-yloxy)phenyl)-N′-(4-(trifluoromethyl)phenyl)cyclopropane-1,1-dicarboxamide], which IC50 is on record?
The IC50 was under 2 µM.

Which IC50 does the source give for Cn1cc(-c2cc(Oc3ccc(NC(=O)C4(C(=O)Nc5ccc(C#N)cc5)CC4)c(F)c3)ccn2)cn1 [Example 28, N-(4-cyanophenyl)-N′-(2-fluoro-4-(2-(1-methyl-1H-pyrazol-4-yl)pyridin-4-yloxy)phenyl)cyclopropane-1,1-dicarboxamide] here?
Its IC50 is under 10 µM.

How did the IC50 turn out when Cn1cc(-c2cc(Oc3ccc(NC(=O)C4(C(=O)Nc5cccs5)CC4)c(F)c3)ccn2)cn1 [Example 35, N-(2-fluoro-4-(2-(1-methyl-1H-pyrazol-4-yl)pyridin-4-yloxy)phenyl)-N′-(thiophen-2-yl)cyclopropane-1,1-dicarboxamide] was run?
Its IC50 is under 2 µM.

How did the IC50 turn out when CC[C@H](NC(=O)C1(C(=O)Nc2ccc(Oc3ccnc(-c4cnn(C)c4)c3)c(F)c2)CC1)c1ccc(F)cc1 [Example 34, N-(3-fluoro-4-(2-(1-methyl-1H-pyrazol-4-yl)pyridin-4-yloxy)phenyl)-N′-((S)-1-(4-fluorophenyl)propyl)cyclopropane-1,1-dicarboxamide] was run?
The IC50 was under 2 µM.

With Cn1cc(-c2cc(Oc3ccc(NC(=O)C4(C(=O)Nc5ccc(F)c(C#N)c5)CC4)c(F)c3)ccn2)cn1 [Example 26, N-(3-cyano-4-fluorophenyl)-N′-(2-fluoro-4-(2-(1-methyl-1H-pyrazol-4-yl)pyridin-4-yloxy)phenyl)cyclopropane-1,1-dicarboxamide] as the compound, how does the IC50 read?
The IC50 was under 10 µM.

With COC[C@H](NC(=O)C1(C(=O)Nc2ccc(Oc3ccnc(-c4cnn(C)c4)c3)c(F)c2)CC1)c1ccc(F)cc1 [Example 36, N-(3-fluoro-4-(2-(1-methyl-1H-pyrazol-4-yl)pyridin-4-yloxy)phenyl)-N′((R)-1-(4-fluorophenyl)-2-methoxyethyl)cyclopropane-1,1-dicarboxamide] as the compound, how does the IC50 read?
The IC50 was under 2 µM.

With Cn1cc(-c2cc(Oc3ccc(NC(=O)C4(C(=O)Nc5ccc(F)cc5F)CC4)c(F)c3)ccn2)cn1 [Example 27, N-(2,4-difluorophenyl)-N′-(2-fluoro-4-(2-(1-methyl-1H-pyrazol-4-yl)pyridin-4-yloxy)phenyl)cyclopropane-1,1-dicarboxamide] as the compound, how does the IC50 read?
The IC50 was under 2 µM.

Which IC50 does the source give for Cn1cc(-c2cc(Oc3ccc(NC(=O)C4(C(=O)Nc5ccc(F)cc5Cl)CC4)c(F)c3)ccn2)cn1 [Example 29, N-(2-chloro-4-fluorophenyl)-N′-(2-fluoro-4-(2-(1-methyl-1H-pyrazol-4-yl)pyridin-4-yloxy)phenyl)cyclopropane-1,1-dicarboxamide] here?
Its IC50 is under 2 µM.

Which IC50 does the source give for O=C(Nc1ccc(F)cc1)C1(C(=O)Nc2ccc(Oc3ccnc(-c4c[nH]nn4)c3)cc2F)CC1 [Example 60, N-(4-(2-(1H-1,2,3-triazol-4-yl)pyridin-4-yloxy)-2-fluorophenyl)-N′-(4-fluorophenyl)cyclopropane-1,1-dicarboxamide] here?
Its IC50 is under 2 µM.

With C[C@H](NC(=O)C1(C(=O)Nc2ccc(Oc3ccnc(-c4cnn(C)c4)c3)c(F)c2)CC1)c1ccc(F)cc1 [Example 33, N-(3-fluoro-4-(2-(1-methyl-1H-pyrazol-4-yl)pyridin-4-yloxy)phenyl)-N′-((S)-1-(4-fluorophenyl)ethyl)cyclopropane-1,1-dicarboxamide] as the compound, how does the IC50 read?
The IC50 was under 2 µM.
